biological target: T1, Recombinant human BRD4 containing dual bromodomains (BRD4-BD12 (1-477)) (Homo sapiens, UniProt O60885); assay: BRD4 Alphascreen binding assay
T1 construct: Recombinant human BRD4 containing dual bromodomains (BRD4-BD12 (1-477)); made in house; host or cells: E. coli BL21-CodonPlus (DE3), modified pET vector
Procedure, shortened: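 His-tagged human BRD4 tandem bromodomains (1-477, E. coli) incubated 1 h at room temperature with biotinylated tetra-acetylated H4 (1-21) peptide and compound in HEPES pH 7.5 buffer with 2 mM DTT. AlphaScreen signal read 30 min after adding beads (7.5 μg/ml); IC50 from four-parameter fit after normalization to controls.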

`Cc1noc(C)c1-c1cnc2c(c1)c(-c1c(Cl)cc(C(=O)O)cc1Cl)cn2C(C)c1ccccn1` (stereo not shown) [P-0095, 3,5-dichloro-4-(5-(3,5-dimethylisoxazol-4-yl)-1-(1-(pyridin-2-yl)ethyl)-1H-pyrrolo[2,3-b]pyridin-3-yl)benzoic acid] and `Cc1noc(C)c1-c1cnc2c(c1)c(-c1ccc(C(=O)O)cc1)cn2C(C)c1ccccn1` (stereo not shown) [P-0080, 4-(5-(3,5-dimethylisoxazol-4-yl)-1-(1-(pyridin-2-yl)ethyl)-1H-pyrrolo[2,3-b]pyridin-3-yl)benzoic acid] fall in the same range of IC50: 1 to 8 µM for the first, 1 to 8 µM for the second.

`COc1cc(C(=O)O)cc(OC)c1-n1cc(CC2CCC2)c2ncc(-c3c(C)noc3C)cc21` [P-0067, 4-(3-(cyclobutylmethyl)-6-(3,5-dimethylisoxazol-4-yl)-1H-pyrrolo[3,2-b]pyridin-1-yl)-3,5-dimethoxybenzoic acid] and `COc1c(-n2cc(CC3CCC3)c3ncc(-c4c(C)noc4C)cc32)ccc(C(=O)O)c1F` [P-0087, 4-(3-(cyclobutylmethyl)-6-(3,5-dimethylisoxazol-4-yl)-1H-pyrrolo[3,2-b]pyridin-1-yl)-2-fluoro-3-methoxybenzoic acid] fall in the same range of IC50: 1 to 8 µM for the first, 1 to 8 µM for the second.

First: Cc1noc(C)c1-c1cnc2c(c1)c(-c1cccc(C(=O)O)c1)cn2C(C1CCC1)C1CCC1 [P-0072, 3-(1-(dicyclobutylmethyl)-5-(3,5-dimethylisoxazol-4-yl)-1H-pyrrolo[2,3-b]pyridin-3-yl)benzoic acid]
Second: Cc1noc(C)c1-c1cnc2c(c1)c(-c1cccc(C(=O)O)c1)cn2C(c1ccccn1)C1CCC1 (stereo not shown) [P-0073, 3-(1-(cyclobutyl(pyridin-2-yl)methyl)-5-(3,5-dimethylisoxazol-4-yl)-1H-pyrrolo[2,3-b]pyridin-3-yl)benzoic acid]
The IC50 of the first is lower: 1 to 8 µM for the first, 8 to 1000 µM for the second.

`Cc1noc(C)c1-c1cnc2c(c1)c(-c1ccc(C(=O)O)cc1)cn2C(c1ccccn1)C1CCCCC1` (stereo not shown) [P-0004, 4-(1-(cyclohexyl(pyridin-2-yl)methyl)-5-(3,5-dimethylisoxazol-4-yl)-1H-pyrrolo[2,3-b]pyridin-3-yl)benzoic acid] and `Cc1noc(C)c1-c1cnc2c(c1)c(-c1ccc(C(=O)O)cc1)cn2[C@@H](C)c1ccccn1` [P-0001, (S)-4-(5-(3,5-dimethylisoxazol-4-yl)-1-(1-(pyridin-2-yl)ethyl)-1H-pyrrolo[2,3-b]pyridin-3-yl)benzoic acid] fall in the same range of IC50: 8 to 1000 µM for the first, 8 to 1000 µM for the second.

`Cc1noc(C)c1-c1cnc2c(c1)c(-c1c(F)ccc(NS(C)(=O)=O)c1F)cn2C(C)c1ccccn1` (stereo not shown) [P-0096, N-(3-(5-(3,5-dimethylisoxazol-4-yl)-1-(1-(pyridin-2-yl)ethyl)-1H-pyrrolo[2,3-b]pyridin-3-yl)-2,4-difluorophenyl)methanesulfonamide] and `Cc1noc(C)c1-c1cnc2c(c1)c(-c1ccc(C(=O)O)cc1OC(F)F)cn2[C@@H](C)c1ccccn1` [P-0071, (S)-3-(difluoromethoxy)-4-(5-(3,5-dimethylisoxazol-4-yl)-1-(1-(pyridin-2-yl)ethyl)-1H-pyrrolo[2,3-b]pyridin-3-yl)benzoic acid] fall in the same range of IC50: 1 to 8 µM for the first, 1 to 8 µM for the second.

`Cc1noc(C)c1-c1cnc2c(c1)c(C1=CCC(C(=O)O)CC1)cn2Cc1ccccc1` (stereo not shown) [P-0093, 4-(1-benzyl-5-(3,5-dimethylisoxazol-4-yl)-1H-pyrrolo[2,3-b]pyridin-3-yl)cyclohex-3-ene-1-carboxylic acid] and `Cc1noc(C)c1-c1cnc2c(c1)c(-c1cccc(C(=O)NO)c1)cn2Cc1ccccc1` [P-0079, 3-(1-benzyl-5-(3,5-dimethylisoxazol-4-yl)-1H-pyrrolo[2,3-b]pyridin-3-yl)-N-hydroxybenzamide] fall in the same range of IC50: 1 to 8 µM for the first, 1 to 8 µM for the second.

`Cc1noc(C)c1-c1cnc2c(c1)c(-c1cccc(C(=O)NC#N)c1)cn2Cc1ccccc1` [P-0078, 3-(1-benzyl-5-(3,5-dimethylisoxazol-4-yl)-1H-pyrrolo[2,3-b]pyridin-3-yl)-N-cyanobenzamide] and `Cc1noc(C)c1-c1cnc2c(c1)c(-c1cccc(C(=O)NS(C)(=O)=O)c1)cn2Cc1ccccc1` [P-0092, 3-(1-benzyl-5-(3,5-dimethylisoxazol-4-yl)-1H-pyrrolo[2,3-b]pyridin-3-yl)-N-(methylsulfonyl)benzamide] fall in the same range of IC50: 1 to 8 µM for the first, 1 to 8 µM for the second.

Compared with `Cc1noc(C)c1-c1cnc2c(CC3CCC3)cn(-c3ccc(C#N)cc3)c2c1` [P-0076, 4-(3-(cyclobutylmethyl)-6-(3,5-dimethylisoxazol-4-yl)-1H-pyrrolo[3,2-b]pyridin-1-yl)benzonitrile], `Cc1noc(C)c1-c1cnc2c(CC3CCC3)cn(-c3ccnc(C#N)c3)c2c1` [P-0077, 4-(3-(cyclobutylmethyl)-6-(3,5-dimethylisoxazol-4-yl)-1H-pyrrolo[3,2-b]pyridin-1-yl)picolinonitrile] is lower in IC50: 8 to 1000 µM for the first, 1 to 8 µM for the second. The second is the more potent here.

`Cc1noc(C)c1-c1cnc2c(c1)c(-c1cccc(C(=O)O)c1)cn2C(=O)c1ccccc1` [P-0085, 3-(1-benzoyl-5-(3,5-dimethylisoxazol-4-yl)-1H-pyrrolo[2,3-b]pyridin-3-yl)benzoic acid] and `Cc1cccc(Cn2cc(-c3cccc(C(=O)O)c3)c3cc(-c4c(C)noc4C)cnc32)c1` [P-0062, 3-(5-(3,5-dimethylisoxazol-4-yl)-1-(3-methylbenzyl)-1H-pyrrolo[2,3-b]pyridin-3-yl)benzoic acid] fall in the same range of IC50: 8 to 1000 µM for the first, 8 to 1000 µM for the second.

Compared with `Cc1noc(C)c1-c1cnc2c(C(=O)C3CC3)c(O)n(-c3ccnc(C(=O)O)c3)c2c1` [P-0084, 4-(3-(cyclopropanecarbonyl)-6-(3,5-dimethylisoxazol-4-yl)-2-hydroxy-1H-pyrrolo[3,2-b]pyridin-1-yl)picolinic acid], `Cc1noc(C)c1-c1cnc2c(C(=O)c3ccccc3Cl)cn(-c3ccnc(C(=O)O)c3)c2c1` [P-0089, 4-(3-(2-chlorobenzoyl)-6-(3,5-dimethylisoxazol-4-yl)-1H-pyrrolo[3,2-b]pyridin-1-yl)picolinic acid] is higher in IC50: 0.0001 to 1 µM for the first, 1 to 8 µM for the second. The first is the more potent here.

`COc1cccc(Cn2cc(-c3cccc(C(=O)O)c3)c3cc(-c4c(C)noc4C)cnc32)c1` [P-0056, 3-(5-(3,5-dimethylisoxazol-4-yl)-1-(3-methoxybenzyl)-1H-pyrrolo[2,3-]pyridin-3-yl)benzoic acid] and `Cc1noc(C)c1-c1cnc2c(c1)c(-c1cccc(S(N)(=O)=O)c1)cn2Cc1ccccc1` [P-0081, 3-(1-benzyl-5-(3,5-dimethylisoxazol-4-yl)-1H-pyrrolo[2,3-b]pyridin-3-yl)benzenesulfonamide] fall in the same range of IC50: 1 to 8 µM for the first, 1 to 8 µM for the second.

Compared with `Cc1noc(C)c1-c1cnc2c(Cc3cccc(Cl)c3)cn(-c3ccnc(C(=O)O)c3)c2c1` [P-0090, 4-(3-(3-chlorobenzyl)-6-(3,5-dimethylisoxazol-4-yl)-1H-pyrrolo[3,2-b]pyridin-1-yl)picolinic acid], `Cc1noc(C)c1-c1cnc2c(CC3CCC3)cn(-c3ccc(C(=O)O)cc3OC(F)F)c2c1` [P-0064, 4-(3-(cyclobutylmethyl)-6-(3,5-dimethylisoxazol-4-yl)-1H-pyrrolo[3,2-b]pyridin-1-yl)-3-(difluoromethoxy)benzoic acid] is higher in IC50: 0.0001 to 1 µM for the first, 1 to 8 µM for the second.

`Cc1noc(C)c1-c1cnc2c(CC3CCC3)cn(-c3ccc(S(C)(=O)=O)c(F)c3)c2c1` [P-0068, 4-(3-(cyclobutylmethyl)-1-(3-fluoro-4-(methylsulfonyl)phenyl)-1H-pyrrolo[3,2-b]pyridin-6-yl)-3,5-dimethylisoxazole] was tested, and the IC50 was 8 to 1000 µM.

From patent US11446287B2, “Compounds and methods for EP300 or CBP modulation and indications therefor” (Opna Immuno-Oncology SA, priority 2019, dated 2022)
